Measured values as given in patent publication US9249145B2, “Heterocyclic derivatives of pyrazol-4-yl-pyrrolo[2,3-d]pyrimidines as janus kinase inhibitors” (Incyte Holdings Corporation, priority 2009, dated 2016).
Where a name gives a salt, the structure may show the parent alone. Read-outs that look alike come from different tables or passages of the source.

Experiments:
[1] = target: T1, human JAK1 (a.a. 837-1142) (Homo sapiens, UniProt P23458); assay: In vitro JAK kinase assay (HTRF, phosphorylation of biotinylated peptide), JAK1; assay type: biochemical
T1 construct: The catalytic domains of human JAK1 (a.a. 837-1142); His tag (N); made in house; host or cells: insect cells (baculovirus)
T1 sequence (P23458 849-1154): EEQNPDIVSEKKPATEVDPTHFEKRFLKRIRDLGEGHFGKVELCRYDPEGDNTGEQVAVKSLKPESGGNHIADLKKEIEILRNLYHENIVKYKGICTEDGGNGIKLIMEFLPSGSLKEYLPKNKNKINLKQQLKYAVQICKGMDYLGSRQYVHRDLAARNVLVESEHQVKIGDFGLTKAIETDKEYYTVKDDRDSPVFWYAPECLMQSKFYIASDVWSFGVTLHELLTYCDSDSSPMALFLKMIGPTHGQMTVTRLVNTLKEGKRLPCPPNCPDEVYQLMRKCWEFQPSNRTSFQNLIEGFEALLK
Procedure, shortened: (§1)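 His-tagged catalytic domains expressed in baculovirus/insect cells; biotinylated peptide (500 nM) phosphorylation in 50 mM Tris pH 7.8, 100 mM NaCl, 5 mM DTT, 0.01% BSA, 1 h room temperature. ATP at Km (JAK1 90 μM, JAK2 30 μM) or 1 mM. EDTA stop, Eu-Py20/SA-APC HTRF read; IC50.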

Jak2 (a.a. 828-1132) = target: T2, Jak2 (a.a. 828-1132) (Homo sapiens, UniProt O60674); assay: In vitro JAK kinase assay (HTRF, phosphorylation of biotinylated peptide), JAK2; assay type: biochemical
T2 construct: Jak2 (a.a. 828-1132); His tag (N); made in house; host or cells: insect cells (baculovirus)
T2 sequence (O60674 828-1132): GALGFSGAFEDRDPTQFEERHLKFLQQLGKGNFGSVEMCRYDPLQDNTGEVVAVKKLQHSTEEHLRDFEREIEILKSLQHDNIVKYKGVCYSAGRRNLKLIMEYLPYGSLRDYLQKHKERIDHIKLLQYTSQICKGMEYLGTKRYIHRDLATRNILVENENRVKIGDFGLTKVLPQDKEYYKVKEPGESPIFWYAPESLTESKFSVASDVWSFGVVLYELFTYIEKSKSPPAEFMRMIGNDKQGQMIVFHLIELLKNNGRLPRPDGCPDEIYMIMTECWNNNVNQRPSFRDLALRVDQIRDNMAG
Procedure, shortened: as §1

[2] = 1 mM ATP, Examples 12-91, read-out: JAK1 IC50 (nM) @ 1 mM ATP
[3] = 1 mM ATP, Examples 12-91, read-out: JAK2 IC50 (nM) @ 1 mM ATP
[4] = 1 mM ATP, Examples 92-162, read-out: JAK1 IC50 (nM) @ 1 mM ATP
[5] = 1 mM ATP, Examples 92-162, read-out: JAK2 IC50 (nM) @ 1 mM ATP
[6] = 1 mM ATP, Examples 1-11, read-out: IC50 (nM) @ 1 mM ATP JAK1
[7] = Km ATP (90 μM for Jak1), Examples 1-11, read-out: IC50 (nM) @ Km ATP JAK1
[8] = 1 mM ATP, Examples 1-11, read-out: IC50 (nM) @ 1 mM ATP JAK2
[9] = Km ATP (30 μM for Jak2), Examples 1-11, read-out: IC50 (nM) @ Km ATP JAK2

Compound	IC50 [1, 2] [nM]	IC50 (Jak2 (a.a. 828-1132); [3]) [nM]	IC50 [1, 4] [nM]	IC50 (Jak2 (a.a. 828-1132); [5]) [nM]	further results
N#CCC(CN1CCN(C(=O)c2ncc(F)cc2F)CC1)n1ccc(-c2ncnc3[nH]ccc23)c1 (stereo not shown) [Example 80, 3-(3-(7H-pyrrolo[2,3-d]pyrimidin-4-yl)-1H-pyrrol-1-yl)-4-(4-(3,5-difluoropicolinoyl)piperazin-1-yl)butanenitrile]	< 10	10 to 50	–	–	–
Cc1c(Nc2ccc(F)c(F)c2)ncnc1N1CCC(C(CC#N)n2cc(-c3ncnc4[nH]ccc34)cn2)CC1 (stereo not shown) [Example 150, 3-(4-(7H-pyrrolo[2,3-d]pyrimidin-4-yl)-1H-pyrazol-1-yl)-3-(1-(6-(3,4-difluorophenylamino)-5-methylpyrimidin-4-yl)piperidin-4-yl)propanenitrile]	–	–	< 20	< 20	–
N#CCC(CN1CCN(C(=O)Nc2c(Cl)cccc2Cl)CC1)n1cc(-c2ncnc3[nH]ccc23)cn1 (stereo not shown) [Example 70, 4-(2-(4-(7H-pyrrolo[2,3-d]pyrimidin-4-yl)-1H-pyrazol-1-yl)-3-cyanopropyl)-N-(2,6-dichlorophenyl)piperazine-1-carboxamide]	10 to 50	50 to 100	–	–	–
CCC(CN1CCN(C(=O)c2ccc(O)cc2F)CC1)n1cc(-c2ncnc3[nH]ccc23)cn1 (stereo not shown) [Example 123, (4-(2-(4-(7H-pyrrolo[2,3-d]pyrimidin-4-yl)-1H-pyrazol-1-yl)butyl)piperazin-1-yl)(2-fluoro-4-hydroxyphenyl)methanone]	–	–	< 20	< 20	–
CCC(CN1CCN(S(=O)(=O)c2ccccc2C(F)(F)F)CC1)n1cc(-c2ncnc3[nH]ccc23)cn1 (stereo not shown) [Example 130, 4-(1-(1-(4-(2-(trifluoromethyl)phenylsulfonyl)piperazin-1-yl)butan-2-yl)-1H-pyrazol-4-yl)-7H-pyrrolo[2,3-d]pyrimidine]	–	–	< 20	50 to 100	–
N#CCC(CN1CCN(C(=O)c2ccc(F)c(C(F)(F)F)c2)CC1)n1cc(-c2ncnc3[nH]ccc23)cn1 (stereo not shown) [Example 57, 3-(4-(7H-pyrrolo[2,3-d]pyrimidin-4-yl)-1H-pyrazol-1-yl)-4-(4-(4-fluoro-3-(trifluoromethyl)benzoyl)piperazin-1-yl)butanenitrile]	10 to 50	> 100	–	–	–
CCC(CN1CCN(S(=O)(=O)c2ccc(Br)s2)CC1)n1cc(-c2ncnc3[nH]ccc23)cn1 (stereo not shown) [Example 145, 4-(1-(1-(4-(5-bromothiophen-2-ylsulfonyl)piperazin-1-yl)butan-2-yl)-1H-pyrazol-4-yl)-7H-pyrrolo[2,3-d]pyrimidine]	–	–	< 20	20 to 50	–
CCC(CN1CCN(S(=O)(=O)c2ccc(F)cc2F)CC1)n1cc(-c2ncnc3[nH]ccc23)cn1 (stereo not shown) [Example 140, 4-(1-(1-(4-(2,4-difluorophenylsulfonyl)piperazin-1-yl)butan-2-yl)-1H-pyrazol-4-yl)-7H-pyrrolo[2,3-d]pyrimidine]	–	–	< 20	50 to 100	–
N#CCC(CN1CCN(C(=O)c2ccccn2)CC1)n1cc(-c2ncnc3[nH]ccc23)cn1 (stereo not shown) [Example 58, 3-(4-(7H-pyrrolo[2,3-d]pyrimidin-4-yl)-1H-pyrazol-1-yl)-4-(4-picolinoylpiperazin-1-yl)butanenitrile]	10 to 50	> 100	–	–	–
N#CCC(CN1CCN(C(=O)c2ccc(F)c(OC(F)(F)F)c2)CC1)n1cc(-c2ncnc3[nH]ccc23)cn1 (stereo not shown) [Example 49, 3-(4-(7H-pyrrolo[2,3-d]pyrimidin-4-yl)-1H-pyrazol-1-yl)-4-(4,-(4-fluoro-3-(trifluoromethoxy)benzoyl)piperazin-1-yl)butanenitrile]	10 to 50	> 100	–	–	–
C[C@@H]1CN(C(=O)c2ccc(C#N)cc2F)CCN1CC(CC#N)n1cc(-c2ncnc3[nH]ccc23)cn1 (single isomer, unassigned) [24, R-1]	< 10	> 100	–	–	–
N#CCC(CN1CCN(C(=O)c2c(F)cc(C#N)cc2F)CC1)n1ccc(-c2ncnc3[nH]ccc23)c1 (stereo not shown) [Example 79, 4-(4-(2-(3-(7H-pyrrolo[2,3-d]pyrimidin-4-yl)-1H-pyrrol-1-yl)-3-cyanopropyl)piperazine-1-carbonyl)-3,5-difluorobenzonitrile trifluoroacetate salt]	< 10	50 to 100	–	–	–
N#CCC(CN1CCN(C(=O)c2ncc(Cl)cc2F)CC1)n1ccc(-c2ncnc3[nH]ccc23)c1 (stereo not shown) [Example 84, 3-(3-(7H-pyrrolo[2,3-d]pyrimidin-4-yl)-1H-pyrrol-1-yl)-4-(4-(5-chloro-3-fluoropicolinoyl)piperazin-1-yl)butanenitrile]	10 to 50	10 to 50	–	–	–
COc1ccc(C(=O)N2CCN(CC(CC#N)n3ccc(-c4ncnc5[nH]ccc45)c3)CC2)cc1F (stereo not shown) [Example 82, 3-(3-(7H-pyrrolo[2,3-d]pyrimidin-4-yl)-1H-pyrrol-1-yl)-4-(4-(3-fluoro-4-methoxybenzoyl)piperazin-1-yl)butanenitrile]	< 10	10 to 50	–	–	–
N#CCC(CN1CCN(C(=O)c2ccc(F)cn2)CC1)n1ccc(-c2ncnc3[nH]ccc23)c1 (stereo not shown) [Example 83, 3-(3-(7H-pyrrolo[2,3-d]pyrimidin-4-yl)-1H-pyrrol-1-yl)-4-(4-(5-fluoropicolinoyl)piperazin-1-yl)butanenitrile]	< 10	10 to 50	–	–	–
CCC(CN1CCN(S(=O)(=O)c2cccc(C)n2)CC1)n1cc(-c2ncnc3[nH]ccc23)cn1 (stereo not shown) [Example 131, 4-(1-(1-(4-(6-methylpyridin-2-ylsulfonyl)piperazin-1-yl)butan-2-yl)-1H-pyrazol-4-yl)-7H-pyrrolo[2,3-d]pyrimidine]	–	–	< 20	20 to 50	–
Cn1ccc(S(=O)(=O)N2CCC(CC(CC#N)n3cc(-c4ncnc5[nH]ccc45)cn3)CC2)n1 (stereo not shown) [Example 7, 4-{1-[(1-methyl-1H-pyrazol-3-yl)sulfonyl]piperidin-4-yl}-3-[4-(7H-pyrrolo[2,3-d]pyrimidin-4-yl)-1H-pyrazol-1-yl]butanenitrile]	–	–	–	–	IC50 [1, 6]: < 10 nM; IC50 [1, 7]: < 10 nM; IC50 (Jak2 (a.a. 828-1132); [8]): < 10 nM; IC50 (Jak2 (a.a. 828-1132); [9]): < 10 nM
CCC(CN1CCN(C(=O)c2ccc(F)cc2OC)CC1)n1cc(-c2ncnc3[nH]ccc23)cn1 (stereo not shown) [Example 125, (4-(2-(4-(7H-pyrrolo[2,3-d]pyrimidin-4-yl)-1H-pyrazol-1-yl)butyl)piperazin-1-yl)(4-fluoro-2-methoxyphenyl)methanone]	–	–	20 to 50	> 100	–
N#CCC(CN1CCN(C(=O)c2ccc(C#N)cc2F)CC1C(F)F)n1cc(-c2ncnc3[nH]ccc23)cn1 (single isomer, unassigned) [Example 159—peak 2, 4-{[4-{3-cyano-2-[4-(7H-pyrrolo[2,3-d]pyrimidin-4-yl)-1H-pyrazol-1-yl]propyl}-3-(difluoromethyl)piperazin-1-yl]carbonyl}-3-fluorobenzonitrile]	–	–	50 to 100	50 to 100	–
N#CCC(CN1CCN(C(=O)c2ccc(Cl)cc2F)CC1)n1cc(-c2ncnc3[nH]ccc23)cn1 (stereo not shown) [Example 26, 3-(4-(7H-pyrrolo[2,3-d]pyrimidin-4-yl)-1H-pyrazol-1-yl)-4-(4-(4-chloro-2-fluorobenzoyl)piperazin-1-yl)butanenitrile]	< 10	< 10	–	–	–
COc1cc(Cl)ccc1C(=O)N1CCCN(CC(CC#N)n2cc(-c3ncnc4[nH]ccc34)cn2)CC1 (stereo not shown) [Example 106, 4-[4-(4-chloro-2-methoxybenzoyl)-1,4-diazepan-1-yl]-3-[4-(7H-pyrrolo[2,3-d]pyrimidin-4-yl)-1H-pyrazol-1-yl]butanenitrile]	–	–	< 20	50 to 100	–
CC(CN1CCN(S(=O)(=O)c2ccn(C)n2)CC1)n1cc(-c2ncnc3[nH]ccc23)cn1 (stereo not shown) [Example 9, 4-[1-(1-methyl-2-{4-[(1-methyl-1H-pyrazol-3-yl)sulfonyl]piperazin-1-yl}ethyl)-1H-pyrazol-4-yl]-7H-pyrrolo[2,3-d]pyrimidine, phosphoric acid salt]	–	–	–	–	IC50 [1, 6]: < 10 nM; IC50 (Jak2 (a.a. 828-1132); [8]): > 20 nM
COc1ccc(Cl)cc1S(=O)(=O)N1CCCN(CC(CC#N)n2cc(-c3ncnc4[nH]ccc34)cn2)CC1 (stereo not shown) [Example 112]	–	–	< 20	20 to 50	–
N#CCC(CC1CCN(S(=O)(=O)C2CC2)CC1)n1cc(-c2ncnc3[nH]ccc23)cn1 (stereo not shown) [Example 5, 4-[1-(cyclopropylsulfonyl)piperidin-4-yl]-3-[4-(7H-pyrrolo[2,3-d]pyrimidin-4-yl)-1H-pyrazol-1-yl]butanenitrile]	–	–	–	–	IC50 [1, 7]: < 10 nM; IC50 (Jak2 (a.a. 828-1132); [8]): < 10 nM; IC50 (Jak2 (a.a. 828-1132); [9]): < 10 nM
N#CCC(CN1CCN(C(=O)Nc2c(F)cccc2F)CC1)n1cc(-c2ncnc3[nH]ccc23)cn1 (stereo not shown) [Example 69, 4-(2-(4-(7H-pyrrolo[2,3-d]pyrimidin-4-yl)-1H-pyrazol-1-yl)-3-cyanopropyl)-N-(2,6-difluorophenyl)piperazine-1-carboxamide]	< 10	10 to 50	–	–	–
CCC(CN1CCN(S(=O)(=O)c2ccccc2)CC1)n1cc(-c2ncnc3[nH]ccc23)cn1 (stereo not shown) [Example 127, 4-(1-(1-(4-(phenylsulfonyl)piperazin-1-yl)butan-2-yl)-1H-pyrazol-4-yl)-7H-pyrrolo[2,3-d]pyrimidine]	–	–	< 20	20 to 50	–
